Experimental data published in ChEMBL document CHEMBL5614367, “Hydroxamic acid hybrids: Histone deacetylase inhibitors with anticancer therapeutic potency” (Eur J Med Chem, 2023).

Legend:
C6 [1] = assay: Antitumor activity against rat C6 cells allografted in Sprague-Dawley rat assessed as survival time at 20 mg/kg, po measured for 20 days; assay type: functional; settings: time 20 day
[2] = target: T1, Protein deacetylase HDAC6 (Homo sapiens, UniProt Q9UBN7); assay: Inhibition of HDAC6 (unknown origin)
T1 sequence (Q9UBN7 whole entry): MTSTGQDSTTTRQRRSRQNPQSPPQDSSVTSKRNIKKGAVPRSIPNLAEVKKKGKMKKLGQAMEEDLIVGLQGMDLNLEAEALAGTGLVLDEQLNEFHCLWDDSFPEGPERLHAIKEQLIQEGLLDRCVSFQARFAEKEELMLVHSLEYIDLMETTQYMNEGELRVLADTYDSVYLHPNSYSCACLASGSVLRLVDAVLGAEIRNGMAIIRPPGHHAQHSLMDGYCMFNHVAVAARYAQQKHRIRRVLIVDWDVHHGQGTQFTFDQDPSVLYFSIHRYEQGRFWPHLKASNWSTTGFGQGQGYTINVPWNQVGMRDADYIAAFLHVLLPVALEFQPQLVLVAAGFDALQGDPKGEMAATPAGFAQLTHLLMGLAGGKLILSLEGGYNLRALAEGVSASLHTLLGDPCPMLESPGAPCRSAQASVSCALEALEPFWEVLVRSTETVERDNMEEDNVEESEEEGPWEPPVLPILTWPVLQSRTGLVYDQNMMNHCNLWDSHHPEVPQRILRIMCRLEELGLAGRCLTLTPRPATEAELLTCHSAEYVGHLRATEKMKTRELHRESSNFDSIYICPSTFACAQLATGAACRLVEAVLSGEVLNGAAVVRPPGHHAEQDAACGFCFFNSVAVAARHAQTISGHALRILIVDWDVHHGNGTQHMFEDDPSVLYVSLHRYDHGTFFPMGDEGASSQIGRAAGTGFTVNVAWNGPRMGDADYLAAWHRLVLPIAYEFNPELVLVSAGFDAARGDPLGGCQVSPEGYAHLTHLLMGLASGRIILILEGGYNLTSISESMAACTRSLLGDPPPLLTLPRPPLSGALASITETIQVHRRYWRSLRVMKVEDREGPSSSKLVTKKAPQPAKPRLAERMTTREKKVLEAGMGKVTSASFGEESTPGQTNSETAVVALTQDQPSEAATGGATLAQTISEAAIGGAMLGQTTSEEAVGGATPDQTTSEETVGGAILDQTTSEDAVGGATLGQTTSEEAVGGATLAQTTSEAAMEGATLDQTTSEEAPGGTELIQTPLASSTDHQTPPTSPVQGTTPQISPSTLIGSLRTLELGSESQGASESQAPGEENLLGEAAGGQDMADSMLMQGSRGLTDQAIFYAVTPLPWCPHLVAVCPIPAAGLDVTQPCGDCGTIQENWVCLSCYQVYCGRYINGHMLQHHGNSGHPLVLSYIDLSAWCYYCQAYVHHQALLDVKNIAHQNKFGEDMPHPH

U-87 MG [3] = assay: Antitumor activity against luciferase-transferred human U-87 MG cells xenografted in athymic nude mouse assessed as survival time at 25 mg/kg, po measured for 20 days; assay type: functional, U-87MG ATCC; settings: time 20 day
U-87 MG [4] = assay: cells; assay type: functional, cell-based, U-87MG ATCC; settings: Homo sapiens, 72 h
Description: Antiproliferative activity against human U-87 MG cells assessed as inhibition of cell growth measured after 72 hrs by MTT assay

C6 [5] = assay: cells; assay type: functional, cell-based; settings: Rattus norvegicus, C6, 72 h
Description: Antiproliferative activity against rat C6 cells assessed as inhibition of cell growth measured after 72 hrs by MTT assay

PC-3 = assay: cells; assay type: functional; settings: Homo sapiens, time 96 hrs
[6] = target: MAP kinase-interacting serine/threonine-protein kinase 2 (Homo sapiens) (UniProt Q9HBH9); assay: Inhibition of MNK2 (unknown origin) at 1 uM incubated for 60 mins by HTRF assay relative to control
Chain of MAP kinase-interacting serine/threonine-protein kinase 2 (Homo sapiens) (Q9HBH9 whole entry, looked up): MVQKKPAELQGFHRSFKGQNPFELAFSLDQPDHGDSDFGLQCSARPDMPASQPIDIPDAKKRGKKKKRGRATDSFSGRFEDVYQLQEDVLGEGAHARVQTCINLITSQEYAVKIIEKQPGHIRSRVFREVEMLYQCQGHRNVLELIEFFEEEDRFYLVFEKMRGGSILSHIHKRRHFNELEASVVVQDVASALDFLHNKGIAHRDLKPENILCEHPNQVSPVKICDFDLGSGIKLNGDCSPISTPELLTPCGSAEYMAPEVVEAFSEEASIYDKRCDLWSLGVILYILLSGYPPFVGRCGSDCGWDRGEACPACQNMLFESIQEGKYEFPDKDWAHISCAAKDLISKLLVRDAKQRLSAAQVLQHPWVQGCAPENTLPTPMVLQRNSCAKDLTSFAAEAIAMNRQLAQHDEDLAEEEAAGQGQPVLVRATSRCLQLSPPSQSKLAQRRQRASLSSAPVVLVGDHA

[7] = target: MAP kinase-interacting serine/threonine-protein kinase 1 (Homo sapiens) (UniProt Q9BUB5); assay: Inhibition of MNK1 (unknown origin) at 1 uM incubated for 60 mins by HTRF assay relative to control
Chain of MAP kinase-interacting serine/threonine-protein kinase 1 (Homo sapiens) (Q9BUB5 whole entry, looked up): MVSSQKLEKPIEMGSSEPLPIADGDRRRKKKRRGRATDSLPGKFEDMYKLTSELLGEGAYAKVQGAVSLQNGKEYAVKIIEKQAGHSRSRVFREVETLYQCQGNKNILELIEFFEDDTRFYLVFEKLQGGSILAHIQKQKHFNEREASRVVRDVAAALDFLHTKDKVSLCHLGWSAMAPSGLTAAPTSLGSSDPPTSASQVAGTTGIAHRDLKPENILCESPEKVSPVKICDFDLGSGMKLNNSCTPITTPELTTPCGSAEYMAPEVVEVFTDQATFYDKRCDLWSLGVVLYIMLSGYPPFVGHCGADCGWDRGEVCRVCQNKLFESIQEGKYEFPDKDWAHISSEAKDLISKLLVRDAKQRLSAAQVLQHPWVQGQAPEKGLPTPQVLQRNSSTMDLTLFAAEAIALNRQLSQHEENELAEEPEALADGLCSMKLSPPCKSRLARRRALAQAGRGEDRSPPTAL

Histone deacetylase = assay: Inhibition of HDAC in human HeLa cell nuclear extract using Boc-Lys(Ac)-AMC as substrate preincubated for 15 mins followed by substrate addition and measured after 60 mins by fluorescence based analysis; assay type: subcellular, Nucleus
BE(2)-C [8] = assay: Antitumor activity against human BE2C cells xenografted in mouse assessed as tumor growth inhibition at 5 mg/kg, ip relative to control; assay type: functional; settings: read-out: TGI
BE(2)-C [9] = assay: Antitumor activity against human BE2C cells xenografted in mouse assessed as tumor growth inhibition at 5 mg/kg, ip in presence of 50 mg/kg vorinostat relative to control; assay type: functional; settings: read-out: TGI
A2780 = assay: Antiproliferative activity against human A2780 cells assessed as inhibition of cell growth incubated for 72 hrs by CCK-8 assay; assay type: functional, cell-based; settings: A2780, 72 h
SK-OV-3 [10] = assay: Antitumor activity against human SK-OV-3 cells xenografted in female Balb/c nude mouse assessed as reduction in tumor growth at 50 mg/kg, sc administered once a day and measured every 2 to 3 days for 19 days relative to control; assay type: functional; set-up: scale not given: the % may be the effect or the level left; settings: time 19 day
SK-OV-3 [11] = assay: Antiproliferative activity against human SK-OV-3 cells assessed as inhibition of cell growth incubated for 72 hrs by CCK-8 assay; assay type: functional, cell-based; settings: SK-OV-3, 72 h
HCT-116 = assay: Antiproliferative activity against human HCT-116 cells assessed as inhibition of cell growth by MTT assay; assay type: functional, cell-based
A-431 = assay: Antiproliferative activity against human A-431 cells assessed as inhibition of cell growth by MTT assay; assay type: functional, cell-based
[12] = target: E3 ubiquitin-protein ligase Mdm2 (Homo sapiens) (UniProt Q00987); assay: Inhibition of MDM2 (unknown origin) using biotinylated P53 peptide as substrate at 1 uM by HTRF assay relative to control
Chain of E3 ubiquitin-protein ligase Mdm2 (Homo sapiens) (Q00987 whole entry, looked up): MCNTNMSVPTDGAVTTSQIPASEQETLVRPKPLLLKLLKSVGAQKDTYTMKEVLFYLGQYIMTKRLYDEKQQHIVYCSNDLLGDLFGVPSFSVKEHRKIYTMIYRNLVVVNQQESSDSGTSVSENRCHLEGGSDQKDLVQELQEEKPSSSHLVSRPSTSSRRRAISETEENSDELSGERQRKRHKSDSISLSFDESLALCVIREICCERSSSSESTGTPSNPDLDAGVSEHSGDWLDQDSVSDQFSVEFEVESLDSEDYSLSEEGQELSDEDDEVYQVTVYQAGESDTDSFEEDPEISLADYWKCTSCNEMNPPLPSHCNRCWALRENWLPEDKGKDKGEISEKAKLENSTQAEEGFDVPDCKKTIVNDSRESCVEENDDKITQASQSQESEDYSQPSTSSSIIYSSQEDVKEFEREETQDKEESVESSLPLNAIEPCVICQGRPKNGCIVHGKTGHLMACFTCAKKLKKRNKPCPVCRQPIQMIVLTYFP

MCF7 = assay: Antiproliferative activity against human MCF7 cells assessed as inhibition of cell growth by MTT assay; assay type: functional, cell-based

`O=C(/C=C/c1cccc(S(=O)(=O)n2ccc3cccnc32)c1)NO` gave a Survival (C6 [1]) greater than 20 days, an IC50 [2] of 0.032 µM and a Survival (U-87 MG [3]) greater than 20 days. For the same molecule, the IC50 (U-87 MG [4]) was 1.85 µM and the IC50 (C6 [5]) was 2.25 µM.
Work on `O=C(CCCCCCC(=O)Nc1ccc2ncnc(Nc3ccc(F)cc3)c2n1)NO` yielded a GI50 (PC-3) of 2.91 µM, an inhibition [6] of 70% and an inhibition [7] of 54%. It also gave an IC50 (Histone deacetylase) of 0.78 µM.
`CC(=O)O[C@H]1C(=O)[C@@]2(C)[C@H]([C@H](OC(=O)c3ccccc3)[C@]3(O)C[C@H](OC(=O)[C@H](O)[C@@H](NC(=O)c4ccccc4)c4ccccc4)C(C)=C1C3(C)C)[C@]1(OC(C)=O)CO[C@@H]1C[C@@H]2O` [PACLITAXEL] gave an inhibition in vivo at 5 mg/kg (BE(2)-C [8]) of 30% and an inhibition in vivo at 5 mg/kg (BE(2)-C [9]) of 44%.
`COc1ccc(-c2cc(-c3ccc(C(C)C)cc3)cnc2NCc2ccc(C(=O)NO)cc2)cc1` gave an IC50 (A2780) of 5.4 µM, an Activity (SK-OV-3 [10]) of roughly 35% and an IC50 (SK-OV-3 [11]) of 0.87 µM. The IC50 [2] was 0.18 µM.
For `O=C(CCCCCCC(=O)N1CCC(C(=O)Nc2ccc([C@@H]3[C@H]4CSCN4[C@]4(C(=O)Nc5cc(Cl)ccc54)[C@H]3C(=O)c3ccccc3)cc2)CC1)NO`, the IC50 (HCT-116) was 1.37 µM, the IC50 (A-431) was 1.37 µM and the inhibition [12] was 65%. The IC50 (MCF7) was 1.37 µM.
